# In PubChem BioAssay AID290 (DTP/NCI, 2004):
# Several values for one entry are separate records, joined by “and”; a condition that tells them apart may be missing. Equal entries are not always repeated. Records with an inconclusive call do not appear.
# Tested on: mice, P1798 lymphosarcoma sc, survival or tumor weight T/C
# Assay: NCI In Vivo Anticancer Drug Screen. Data for tumor model P1798 Lymphosarcoma (subcutaneous) in unknown mice
# Description: The antitumor activity of compounds was measured in mice bearing transplantable tumors. Survival or tumor size were measured and the results are expressed as the measurement made in the treated group (T) divided by the measurement made in the vehicle treated control group (C). The tumor model used in this assay is P1798 Lymphosarcoma (subcutaneous) in unknown mice
# [1] = endpoint: mean tumor weight, dose: 125.0 mg/kg/injection, schedule: Q01DX010 (ip), vehicle: carboxymethylcellulose (CMC), higher = larger tumour
smiles,measurement,setting,value
C[C@]12C=CC(=O)C=C1CC[C@@H]1[C@@H]2C(=O)C[C@@]2(C)[C@H]1CC[C@]2(O)C(=O)CO,T/C,"endpoint: mean tumor weight, dose: 0.31 mg/kg/injection, schedule: Q01DX010 (sc), vehicle: steriod suspending solution, higher = larger tumour",81 % of control
same,T/C,"endpoint: mean tumor weight, dose: 0.62 mg/kg/injection, schedule: Q01DX010 (sc), vehicle: steriod suspending solution, higher = larger tumour",124 % of control
same,T/C,"endpoint: mean tumor weight, dose: 3.1 mg/kg/injection, schedule: Q01DX010 (sc), vehicle: steriod suspending solution, higher = larger tumour",82 % of control
same,T/C,"endpoint: mean tumor weight, dose: 5.0 mg/kg/injection, schedule: Q01DX010 (sc), vehicle: steriod suspending solution, higher = larger tumour",59 % of control
same,T/C,"endpoint: mean tumor weight, dose: 6.25 mg/kg/injection, schedule: Q01DX010 (sc), vehicle: steriod suspending solution, higher = larger tumour",99 % of control
same,T/C,"endpoint: mean tumor weight, dose: 10.0 mg/kg/injection, schedule: Q01DX010 (sc), vehicle: steriod suspending solution, higher = larger tumour",83 % of control
same,T/C,"endpoint: mean tumor weight, dose: 10.0 mg/kg/injection, schedule: Q01DX010 (sc), vehicle: water, higher = larger tumour",105 % of control
same,T/C,"endpoint: mean tumor weight, dose: 20.0 mg/kg/injection, schedule: Q01DX010 (sc), vehicle: steriod suspending solution, higher = larger tumour",68 % of control and 74 % of control
same,T/C,"endpoint: mean tumor weight, dose: 20.0 mg/kg/injection, schedule: Q01DX010 (sc), vehicle: water, higher = larger tumour",108 % of control
same,T/C,"endpoint: mean tumor weight, dose: 40.0 mg/kg/injection, schedule: Q01DX010 (sc), vehicle: water, higher = larger tumour",100 % of control
same,T/C,"endpoint: mean tumor weight, dose: 60.0 mg/kg/injection, schedule: Q01DX001 (sc), vehicle: steriod suspending solution, higher = larger tumour",87 % of control
same,T/C,"endpoint: mean tumor weight, dose: 120.0 mg/kg/injection, schedule: Q01DX001 (sc), vehicle: steriod suspending solution, higher = larger tumour",34 % of control
same,T/C,"endpoint: median survival time, dose: 2.34 mg/kg/injection, schedule: Q01DX029 (ip), vehicle: saline, higher = longer survival",82 % of control
same,T/C,"endpoint: median survival time, dose: 4.67 mg/kg/injection, schedule: Q01DX025 (ip), vehicle: saline, higher = longer survival",96 % of control
same,T/C,"endpoint: median survival time, dose: 9.35 mg/kg/injection, schedule: Q01DX025 (ip), vehicle: saline, higher = longer survival",100 % of control
same,T/C,"endpoint: median survival time, dose: 9.35 mg/kg/injection, schedule: Q01DX029 (ip), vehicle: saline, higher = longer survival",98 % of control
same,T/C,"endpoint: median survival time, dose: 9.37 mg/kg/injection, schedule: Q01DX029 (ip), vehicle: saline, higher = longer survival",89 % of control
same,T/C,"endpoint: median survival time, dose: 18.7 mg/kg/injection, schedule: Q01DX025 (ip), vehicle: saline, higher = longer survival",88 % of control
same,T/C,"endpoint: median survival time, dose: 18.75 mg/kg/injection, schedule: Q01DX010 (ip), vehicle: saline, higher = longer survival",101 % of control
same,T/C,"endpoint: median survival time, dose: 37.5 mg/kg/injection, schedule: Q01DX025 (ip), vehicle: saline, higher = longer survival",75 % of control
same,T/C,"endpoint: median survival time, dose: 75.0 mg/kg/injection, schedule: Q01DX010 (sc), vehicle: saline, higher = longer survival",153 % of control
same,T/C,"endpoint: median survival time, dose: 75.0 mg/kg/injection, schedule: Q01DX025 (ip), vehicle: saline, higher = longer survival",59 % of control
same,T/C,"endpoint: median survival time, dose: 150.0 mg/kg/injection, schedule: Q01DX010 (sc), vehicle: saline, higher = longer survival",47 % of control
same,T/C,"endpoint: median survival time, dose: 150.0 mg/kg/injection, schedule: Q01DX025 (ip), vehicle: saline, higher = longer survival",46 % of control
same,T/C,"endpoint: median survival time, dose: 150.0 mg/kg/injection, schedule: Q01DX029 (ip), vehicle: saline, higher = longer survival",42 % of control
same,T/C,"endpoint: median survival time, dose: 300.0 mg/kg/injection, schedule: Q01DX010 (sc), vehicle: saline, higher = longer survival",39 % of control
same,T/C,"endpoint: median survival time, dose: 600.0 mg/kg/injection, schedule: Q01DX010 (sc), vehicle: saline, higher = longer survival",34 % of control
Clc1ccc(C(c2ccccc2Cl)C(Cl)Cl)cc1 (stereo unspecified),T/C,"endpoint: mean tumor weight, dose: 62.5 mg/kg/injection, schedule: Q01DX010 (sc), vehicle: steriod suspending solution, higher = larger tumour",85 % of control
same,T/C,"endpoint: mean tumor weight, dose: 125.0 mg/kg/injection, schedule: Q01DX010 (sc), vehicle: steriod suspending solution, higher = larger tumour",73 % of control
same,T/C,"endpoint: mean tumor weight, dose: 250.0 mg/kg/injection, schedule: Q01DX010 (sc), vehicle: steriod suspending solution, higher = larger tumour",105 % of control
same,T/C,"endpoint: mean tumor weight, dose: 500.0 mg/kg/injection, schedule: Q01DX010 (sc), vehicle: steriod suspending solution, higher = larger tumour",103 % of control
CO[C@H](C(=O)[C@@H](O)[C@@H](C)O)[C@@H]1Cc2cc3cc(OC4CC(OC5CC(O)C(O)C(C)O5)C(O)C(C)O4)c(C)c(O)c3c(O)c2C(=O)[C@H]1OC1CC(OC2CC(OC3CC(C)(O)C(O)C(C)O3)C(O)C(C)O2)C(O)C(C)O1 (stereo partly specified),T/C,"endpoint: mean tumor weight, dose: 0.06 mg/kg/injection, schedule: Q01DX011 (ip), vehicle: saline, higher = larger tumour",89 % of control and 102 % of control
[I][Hg][CH2]C1COC([CH2][Hg][I])CO1 (stereo unspecified),T/C,"endpoint: mean tumor weight, dose: 1.8 mg/kg/injection, schedule: Q01DX010 (ip), vehicle: carboxymethylcellulose (CMC), higher = larger tumour",64 % of control
same,T/C,"endpoint: mean tumor weight, dose: 3.75 mg/kg/injection, schedule: Q01DX010 (ip), vehicle: carboxymethylcellulose (CMC), higher = larger tumour",85 % of control
same,T/C,"endpoint: mean tumor weight, dose: 7.5 mg/kg/injection, schedule: Q01DX010 (ip), vehicle: carboxymethylcellulose (CMC), higher = larger tumour",81 % of control
same,T/C,"endpoint: mean tumor weight, dose: 30.0 mg/kg/injection, schedule: Q01DX010 (ip), vehicle: carboxymethylcellulose (CMC), higher = larger tumour",65 % of control
S=C(N=Nc1ccccc1)NNc1ccccc1,T/C,"endpoint: mean tumor weight, dose: 37.5 mg/kg/injection, schedule: Q01DX010 (ip), vehicle: carboxymethylcellulose (CMC), higher = larger tumour",64 % of control
O=C(Nc1ccc(C2=NCCN2)cc1)c1ccc(C(=O)Nc2ccc(C3=NCCN3)cc2)c(Cl)c1,T/C,"endpoint: mean tumor weight, dose: 12.5 mg/kg/injection, schedule: Q01DX010 (ip), vehicle: water, higher = larger tumour",70 % of control
same,T/C,"endpoint: mean tumor weight, dose: 14.0 mg/kg/injection, schedule: Q01DX011 (ip), vehicle: carboxymethylcellulose (CMC), higher = larger tumour",7 % of control
same,T/C,"endpoint: mean tumor weight, dose: 28.0 mg/kg/injection, schedule: Q01DX001 (ip), vehicle: carboxymethylcellulose (CMC), higher = larger tumour",80 % of control
same,T/C,"endpoint: mean tumor weight, dose: 55.0 mg/kg/injection, schedule: Q01DX001 (ip), vehicle: carboxymethylcellulose (CMC), higher = larger tumour",33 % of control
CCC1=C(c2cc(Cl)c3ccccc3c2OCC(=O)O)OC(CC)(C(=O)c2cc(Cl)c3ccccc3c2OCC(=O)O)CC1 (stereo unspecified),T/C,"endpoint: mean tumor weight, dose: 30.0 mg/kg/injection, schedule: Q01DX010 (ip), vehicle: steriod suspending solution, higher = larger tumour",94 % of control
same,T/C,"endpoint: mean tumor weight, dose: 60.0 mg/kg/injection, schedule: Q01DX010 (ip), vehicle: steriod suspending solution, higher = larger tumour",112 % of control
same,T/C,"endpoint: mean tumor weight, dose: 120.0 mg/kg/injection, schedule: Q01DX010 (ip), vehicle: steriod suspending solution, higher = larger tumour",65 % of control
same,T/C,"endpoint: mean tumor weight, dose: 240.0 mg/kg/injection, schedule: Q01DX010 (ip), vehicle: steriod suspending solution, higher = larger tumour",85 % of control
CCOC(N)=O,T/C,"endpoint: mean tumor weight, dose: 250.0 mg/kg/injection, schedule: Q01DX010 (ip), vehicle: saline, higher = larger tumour",70 % of control and 76 % of control
O=CCC(O)C(O)C(O)CO (stereo unspecified),T/C,"endpoint: mean tumor weight, dose: 16.0 mg/kg/injection, schedule: Q01DX010 (ip), vehicle: carboxymethylcellulose (CMC), higher = larger tumour",67 % of control
same,T/C,"endpoint: mean tumor weight, dose: 31.2 mg/kg/injection, schedule: Q01DX010 (ip), vehicle: carboxymethylcellulose (CMC), higher = larger tumour",74 % of control
same,T/C,"endpoint: mean tumor weight, dose: 62.5 mg/kg/injection, schedule: Q01DX010 (ip), vehicle: carboxymethylcellulose (CMC), higher = larger tumour",70 % of control
same,T/C,[1],36 % of control and 61 % of control
same,T/C,"endpoint: mean tumor weight, dose: 250.0 mg/kg/injection, schedule: Q01DX010 (ip), vehicle: carboxymethylcellulose (CMC), higher = larger tumour",44 % of control
same,T/C,"endpoint: mean tumor weight, dose: 500.0 mg/kg/injection, schedule: Q01DX010 (ip), vehicle: carboxymethylcellulose (CMC), higher = larger tumour",42 % of control
same,T/C,"endpoint: mean tumor weight, dose: 1000.0 mg/kg/injection, schedule: Q01DX010 (ip), vehicle: carboxymethylcellulose (CMC), higher = larger tumour",19 % of control
CCCSc1ncnc2nc[nH]c12,T/C,"endpoint: mean tumor weight, dose: 31.0 mg/kg/injection, schedule: Q01DX010 (ip), vehicle: carboxymethylcellulose (CMC), higher = larger tumour",84 % of control
same,T/C,"endpoint: mean tumor weight, dose: 62.0 mg/kg/injection, schedule: Q01DX010 (ip), vehicle: carboxymethylcellulose (CMC), higher = larger tumour",70 % of control
same,T/C,[1],51 % of control and 52 % of control
Nc1nc(SCc2ccccc2)c2[nH]cnc2n1,T/C,"endpoint: mean tumor weight, dose: 4.7 mg/kg/injection, schedule: Q01DX010 (ip), vehicle: carboxymethylcellulose (CMC), higher = larger tumour",42 % of control
same,T/C,"endpoint: mean tumor weight, dose: 9.4 mg/kg/injection, schedule: Q01DX010 (ip), vehicle: carboxymethylcellulose (CMC), higher = larger tumour",51 % of control
CC(C)(c1ccccc1)c1ccc(O)cc1,T/C,"endpoint: mean tumor weight, dose: 50.0 mg/kg/injection, schedule: Q01DX010 (ip), vehicle: carboxymethylcellulose (CMC), higher = larger tumour",91 % of control
same,T/C,"endpoint: mean tumor weight, dose: 100.0 mg/kg/injection, schedule: Q01DX010 (ip), vehicle: carboxymethylcellulose (CMC), higher = larger tumour",109 % of control
same,T/C,"endpoint: mean tumor weight, dose: 200.0 mg/kg/injection, schedule: Q01DX010 (ip), vehicle: carboxymethylcellulose (CMC), higher = larger tumour",108 % of control
